Assay results published in paper PMC6453917, “On resin click-chemistry-mediated synthesis of novel enkephalin analogues with potent anti-nociceptive activity” (Scientific Reports, 2019).
Read-outs that look alike come from different tables or passages of the source. Where a SMILES comes first, the peptide text is derived from it. Bridges are numbered along the chain shown (N, C = ends). Triazole bridges read from a SMILES are 1,4-linked. [ ]: non-standard residue; d: D form. dDap(N3) = [N-]=[N+]=NC[C@@H](N)C(=O)O; dPra = C#CC[C@@H](N)C(=O)O

Experiments:
human KOP [1] = biological target: T1, human KOP (Homo sapiens, UniProt P41145); assay: Competition radioligand binding vs 3H-diprenorphine, KOP
T1 construct: expressed in transfected cells; host or cells: CHO cells (membrane preparations)

human KOP [2] = biological target: T1, human KOP; assay: 35S-GTPγS coupling assay, KOP; assay type: biochemical; parameters: Emax: dose or concentration left out as unconfirmed; conditions: for Emax: read-out: KOP EMax (in parentheses)
Plasma stability assay = assay type: in vitro ADME; conditions: human plasma, 37 °C, read-out: degradation half-life (t1/2)
Method: A plasma stability assay was performed by incubation of compounds in human plasma at a chosen initial concentration (i.e. 5 μM) at 37 °C. The aliquots of the incubated plasma samples were taken at T0 (at the beginning) and at T2 (after 4 hours). Collected samples were spiked with cold acetonitrile to precipitate proteins and prevent the compound from further decomposition. The assay was repeated in triplicate. Plasma aliquots were centrifuged and the supernatant collected and analyzed by LC-MS technique. The instrument responses were referenced to the zero time-point sample (as 100%) in order to determine the percentage of compound remaining after incubation at a given time point. The half-life parameter was calculated from linear regression of time course data.
Plasma and working solutions of experimental and control compounds (at appropriate concentrations) were warmed to 37 °C. 99 µL of plasma was dispensed into a pre-labeled 96-well plate (in triplicate per time-point). Then 1 µL of test compound and reference compound were transferred to wells filled by plasma. 200 µL of cold acetonitrile was added immediately into wells marked as the ‘0’ time point to precipitate proteins and prevent compound from biotransformation. Plates were incubated in a thermostatic shaker at 37 °C while shaken at 350 rpm. […] Samples were analyzed using an LC-MS technique.

[3] = BBB PAMPA assay (porcine brain lipids)
[4] = parameters: method as in PMID 25755050; conditions: compared with morphine; cited from earlier work
[5] = parameters: method as in PMID 25755050; conditions: cited from earlier work
CD-1 male mice [6] = assay: Hot plate test (thermal nociception); assay type: in vivo; conditions: i.v., 23 μmol.kg−1, mice
CD-1 male mice [7] = assay: Formalin test; assay type: in vivo; conditions: s.c., 100 nmol, 15 min before formalin
Source text: The formalin test involves moderate and continuous pain generated by an injured tissue, and the measured response is the time the animals spend licking the injected paw. […] The early phase is caused predominantly by δ-fiber activation, due to a direct effect on nociceptors, while the late phase appears to be an inflammatory response, involving the unmyelinated C-fibre[44].
CD-1 male mice (Harlan, Italy) weighing 25–30 g were used in all the experiments. Before the experimental sessions, the mice were maintained in colony, housed in cages (7 mice per cage) under standard light/dark cycle (from 7:00 AM to 7:00 PM), temperature (21 ± 1 °C) and relative humidity (60 ± 10%) for at least 1 week. Food and water were available ad libitum. […]
Subcutaneous injection of a dilute solution of formalin (1%, 20 μL/paw) into the mice hind paw evoked nociceptive behavioural responses, such as licking, biting the injected paw or both, which are considered indices of nociception. […] The total time the animal spent licking or biting its paw during the early and late phase of formalin-induced nociception was recorded. […]

[8] = cited from earlier work
[9] = parameters: method as in PMID 29513114; conditions: cited from earlier work
MOP = MOP agonist activity; read-out: IC50 in the GPI assay; cited from earlier work
DOP = conditions: read-out: IC50 in the MVD assay; DOP agonist activity; cited from earlier work

NC(=O)[C@H]1Cc2cn(nn2)C[C@@H](NC(=O)[C@@H](N)Cc2ccc(O)cc2)C(=O)NCC(=O)N[C@@H](Cc2ccccc2)C(=O)N1 [NOVA2, H-Tyr-c[DAza-Gly-Phe-DPra]-NH2 triazole] (H-Y[dDap(N3)]GF[dPra]-NH2; triazole 2-5) gave a Ki (human KOP [1]) of over 3330 nM, an EC50 (human KOP [2]) of over 3330 nM and an Emax (human KOP [2]) of 68.3 ± 5%. For the same compound, the half-life at 5 μM (Plasma stability assay) was over 4 h, the “Mean (%) Mass balance” value ([3]; PAMPA) was 102.22% and the “Pe value relative to negative control theophylline” value ([3]; PAMPA) was “two-fold higher”. For the same compound, the Classification ([3]; PAMPA BBB permeation class) was “Low permeation (Pe<2.0→lowpermeation)”.

For Tyr-c^2,4[DLys-Phe-Dab]-CH2CH2NHCONH2, the antinociceptive response [4] is listed as “stronger antinociceptive response than that of morphine” and the enzymatic degradation [5] is listed as “resistant to enzymatic degradation”.

For CC1(C)SSC(C)(C)[C@@H](NC(=O)[C@@H](N)Cc2ccc(O)cc2)C(=O)NCC(=O)N[C@@H](Cc2ccccc2)C(=O)N[C@H]1C(=O)O [DPDPE, (D-Pen^2,D-Pen^5)-Enkephalin], the “antinociceptive effect (nociceptive threshold), hot plate” value (CD-1 male mice [6]) is listed as “ineffective”, the “antinociceptive effect, formalin test, early and late phase” value (CD-1 male mice [7]) is listed as “slight but not significant antinociceptive effect” and the “antinociception after i.c.v. administration” value ([8]; i.c.v.) is listed as “slightly active until 45 min”. The “antinociception after s.c. administration” value ([8]; s.c.) was “completely inactive”.

Work on NC(=O)[C@H]1Cn2cc(nn2)C[C@@H](NC(=O)[C@@H](N)Cc2ccc(O)cc2)C(=O)NCC(=O)N[C@@H](Cc2ccccc2)C(=O)N1 [NOVA1, H-Tyr-c[DPra-Gly-Phe-DAza]-NH2 triazole] (H-Y[dPra]GF[dDap(N3)]-NH2; triazole 2-5) yielded a Ki (human KOP [1]) of over 3330 nM, an EC50 (human KOP [2]) of over 3330 nM and an Emax (human KOP [2]) of 56.7 ± 5.4%.

For Dmt-c[D-Lys-Phe-p-CF3-Phe-Asp]NH2 [F18], the Classification ([9]; PAMPA BBB permeation class) is given as “Low permeation (Pe<2.0→lowpermeation)” and the “Mean (%) Mass balance” value ([9]; PAMPA) is given as 95.75%.

For “cyclo(N^ε,N^β’-carbonyl-D-Lys^2,Dap^5)-enkephalinamide”, the IC50 (MOP) is listed as 0.21 nM and the IC50 (DOP) is listed as 0.65 nM.
